# Assays:
# [1] = molecular target: human recombinant beta-secretase (hBACE1) (Homo sapiens (Human), UniProt P56817); test: FRET assay, inhibition of human recombinant beta-secretase; type: biochemical; conditions: 50 μM inhibitor concentration; read-out: hBACE-1 % inh
# How it was run: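 hBACE1 (added as 1 U/ml solution) cleaves a rhodamine/quencher peptide based on the Swedish APP mutation in 50 mM sodium acetate pH 4.5, 60 min at 25 °C, stopped with 2.5 M sodium acetate; fluorescence at 576 nm. % inhibition from 0–60 min signal change versus enzyme-only blanks; screened at 50 μM in triplicate; IC50 by non-linear regression.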
# [2] = molecular target: Recombinant human Aβ1-42 peptide (Homo sapiens (Human), UniProt P05067); test: Thioflavin T test, antiaggregation activity against beta-amyloid; type: biochemical; conditions: 10 μM test compound, 1.5 μM Aβ1-42; read-out: inh. Aβ aggr. % inh
# How it was run: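 Aβ1-42 (1.5 μM final, HFIP-pretreated) aggregated in HEPES pH 7.4 with 150 mM NaCl, thioflavin T 10 μM, 3% DMSO, compound 10 μM. Fluorescence (ex 440/em 490 nm) read every 300 s with mixing; plateau values minus t=0 give % inhibition; IC50 by non-linear regression against concentration.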
# [3] = system: Albino Swiss CD-1 mice; test: Spontaneous motor activity test; type: in vivo
# Method: The research was conducted at the Department of Pharmacodynamics, Faculty of Pharmacy, Jagiellonian University in Krakow. All procedures were approved by the 1st and 2nd Local Ethics Committee for Animal Experiments in Krakow (consent no. 53/2017 and 250/2019) and were performed in accordance with the applicable European Union regulation (86/609/EEC). Males of two different strains of domestic mice (Mus musculus) were used in the study: Albino Swiss CD-1 (body weight approx. 20-24 g, age approx. 6 weeks) and C57BL/6J mice (body weight approx. 18-22 g, age approx. 6 weeks). The CD-1 strain was used for the passive avoidance, spontaneous mobility and rotating rod tests, while the C57BL/6J mice were used for the Morris water maze and the Barnes' maze. The animals were kept in standard, appropriately sized cages, divided into groups with a maximum of 10 animals. […]
# In this test, the effect of compound JT-3 on the spontaneous motor activity of mice was investigated. […] The apparatus recorded the number of horizontal and vertical movements during the 60-minute test. The mice were put into the actometer, the measurement lasted for 1 hour, during which the camera counted the number of times the light beams were crossed, i.e. motor activity. […]
# human recombinant beta-secretase (hBACE1), sequence (P56817 46-501): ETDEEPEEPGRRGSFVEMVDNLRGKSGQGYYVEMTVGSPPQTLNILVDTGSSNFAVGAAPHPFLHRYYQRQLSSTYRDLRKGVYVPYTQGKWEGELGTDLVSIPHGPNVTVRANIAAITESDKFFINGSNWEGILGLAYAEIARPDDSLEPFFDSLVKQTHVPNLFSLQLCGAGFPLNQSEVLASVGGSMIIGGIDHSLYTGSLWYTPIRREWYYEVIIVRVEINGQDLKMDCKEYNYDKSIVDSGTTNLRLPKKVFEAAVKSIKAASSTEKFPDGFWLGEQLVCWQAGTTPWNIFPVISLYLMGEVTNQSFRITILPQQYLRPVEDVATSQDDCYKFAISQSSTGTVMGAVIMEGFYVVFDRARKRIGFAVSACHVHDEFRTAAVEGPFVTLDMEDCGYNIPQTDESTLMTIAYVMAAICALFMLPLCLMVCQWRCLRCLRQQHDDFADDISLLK
# Recombinant human Aβ1-42 peptide, sequence (P05067 672-713): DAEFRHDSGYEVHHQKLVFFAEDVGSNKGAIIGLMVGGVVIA
compound,measurement,setting,value
"O[C@H](CNCC1CC1)[C@H](Cc1ccccc1)NC1c2ccccc2-c2ccccc21 [JT-3, (2R,3S)-3-((9H-fluoren-9-yl)amino)-1-((cyclopropylmethyl)amino)-4-phenylbutan-2-ol]",inhibition at 50 µM,[1],61.3%
same,inhibition at 10 µM,[2],79%
same,effect on spontaneous motor activity (number of movements in 60 min),[3]; 10 mg/kg i.p.,Neither of these doses affected the motility of the animals
same,effect on spontaneous motor activity (number of movements in 60 min),[3]; 30 mg/kg i.p.,Neither of these doses affected the motility of the animals
